In patent US20150307841A1, “Composition for Promoting Differentiation and Proliferation of Neural Stem Cell and Neural Precursor Cell” (priority 2014, published 2015):

Key:
Type in all cases: cell-based, rat
[1] = system: hippocampal neural precursor cells (NPCs); experiment: Immunoblotting assay of VGluT1, ChAT, GAD65/67 in cultured hippocampal neural precursor cells
Description: (§1) Pregnant Sprague-Dawley rats purchased from Orient Animal Breeding Center (a branch of Charles River Laboratories, Gyeonggi-do, Korea) were sacrificed by exposing to CO2 inhalation. Hippocampal neural precursor cells (NPCs) were isolated from the brain of the E16 rat embryo according to the method of Shin M H et al. (Exp Mol Med, 2002) with slight modifications.
(§2) Briefly, hippocampi were aseptically dissected from the embryonic forebrain, mechanically dissociated in Ca^2+/Mg^2+-free Hank's balanced salt solution (HBSS) and then plated at 7×10^5 cells/cm^2 on 60-mm dishes pre-coated with 15 μg/mL poly-L-ornithine and 1 μg/mL fibronectin. The neural precursor cells were cultured in serum-free N2 media supplemented with 10 ng/mL bFGF in 5% CO2 for 3 days and then detached using 0.05% trypsin-ethylenediaminetetraacetic acid (EDTA). The neural precursor cells were plated on 12-mm cover glasses (Bellco Co., Vineland, N.J., USA) and cultured one more day in N2 media supplemented with 10 ng/mL bFGF in 5% CO2 (primary culturing).
Following the primary culturing in (1), the cultured hippocampal neural precursor cells were lysed in 80 μL of a cold RIPA buffer containing a protease inhibitor cocktail for immunoblotting assay of VGluT1, ChAT and GAD65/67. After centrifugation for 10 minutes at 13,000×g, the supernatants were divided into Eppendorf tubes and stored at −80° C.
Protein quantification assay was performed using a Bradford protein assay kit (Bio-Rad, Hercules, Calif., USA). […]
The number of the VGluT1- and GAD-positive cells in the brain slice samples 1 week and 4 weeks after the administration of soyasaponin I was presented per microscopic field (×400-VGluT1, ×800-GAD67) and the number of the ChAT-positive cells was presented per each hippocampal region (10-12 confocal laser microscopic fields). […] Western blotted membranes were analyzed using the multi-gauge, bio-imaging program on LAS-4000 Mini (Fujifilm Life Science, Stamford, Conn., USA). […]

[2] = system: hippocampal neural precursor cells (NPCs); experiment: NeuN, GFAP, TUJ1, MAP2 immunostaining of cultured embryonic neural precursor cells (differentiation, neurite outgrowth)
Description: as §1, §2
Following the primary culturing in (1), in order to confirm the differentiation of the neural precursor cells and the proliferation of the differentiated neurons, the neural precursor cells were cultured on 12-mm cover glasses (Bellco Co., Vineland, N.J., USA) for 4 days in bFGF-free N2 media with 2×10^4 cells/well. For double immunostaining of GFAP and NeuN, and TUJ1 and MAP2, the cells were cultured for only 2 days.
The immunostaining was carried out as previously described (Donaldson J G (2001) Immunofluorescence staining Curr Protoc Cell Biol Chapter 4: Unit 4.3) with minor modifications.
On the next day, after adding a vehicle (dimethyl sulfoxide) or soyasaponin I at different concentrations of 0.5, 1 or 2 μM to the media, the cells were fixed with 4% PFA in PBS at 4° C. for 4-15 minutes. The cells were permeabilized with 0.5% Triton X-100 for 5 minutes and blocked with 5% normal serum (a mixture of normal donkey, goat and horse sera) for 1 hour at room temperature.
The cells were incubated with anti-GFAP (1:1,000, Chemicon), anti-NeuN (1:500, Chemicon), anti-MAP2 (1:2,500, Sigma) and anti-TUJ1 (1:2,000, Sigma) primary antibodies for 1 hour at room temperature. The secondary antibodies and scanning method used were the same as in (2).
Cell counting was performed as reported by Park H J et al. (Phytother Res, 2008). The average length per neurite of the MAP2-positive cells with longer neurites more than double the cell body width was counted from 10-12 confocal laser microscopic fields that were randomly chosen per the cultured cover glass. Primary branches, which directly outgrow from the cell body, were counted when the length of the primary branches was 2 times or longer than the cell body width. All secondary and tertiary branches that come from the primary and secondary branches, respectively, were also counted. The numbers of the branches were also counted from 10-12 confocal laser microscopic fields that were randomly chosen per each cover glass on which the neuronal cells were grown and immunostained with MAP2 antibodies. Analysis of the neurite length and the numbers of the branches was performed with LSM Image Examiner ver. 2.80 (Carl Zeiss).

[3] = system: hippocampal neural precursor cells (NPCs); experiment: Ki67 immunostaining of cultured embryonic neural precursor cells (proliferation)
Description: as §1, §2
Following the primary culturing in (1), immunohistochemical analysis was conducted using Ki67 antibodies in order to confirm the effect of soyasaponin I on proliferation of the embryonic neural precursor cells. […]

C[C@@H]1O[C@@H](O[C@H]2[C@H](O[C@H]3[C@H](O[C@H]4CC[C@@]5(C)[C@@H](CC[C@]6(C)[C@@H]5CC=C5[C@@H]7CC(C)(C)C[C@@H](O)[C@]7(C)CC[C@]56C)[C@@]4(C)CO)O[C@H](C(=O)O)[C@@H](O)[C@@H]3O)O[C@H](CO)[C@H](O)[C@@H]2O)[C@H](O)[C@H](O)[C@H]1O [soyasaponin I]
Expression level of ChAT protein compared to the normal group ([1]; 0.5, 1, 2 μM test groups, normalized to β-actin and vehicle): 1.9 fold
Expression of GAD65/67 protein ([1]; treatment for 6 days): increased relatively little
Expression of VGluT1 protein ([1]; treatment for 6 days): increased relatively little
Neurite length (MAP2) increase compared to the normal group ([2]; 1 μM soyasaponin I for 4 days): 2.2 fold
Number of NeuN-expressing cells (differentiation into mature neurons) ([2]; 0.5 and 1 μM, concentration-dependent): increased
Astrocytes expressing glial fibrillary acidic protein (GFAP) in the cultures ([2]; hippocampal neural precursor cell cultures): hardly observed
Increase in TUJ1-expressing cells compared to the normal group ([2]; soyasaponin I 0.5 μM group): about 4 fold
Average neurite length ([2]; soyasaponin I 1 μM group): markedly increased
Numbers of both primary and secondary branches ([2]; soyasaponin I 1 μM group): markedly increased
Increase in the number of proliferating (Ki67) cells compared with the normal group (Vehicle) ([3]; 2 μM soyasaponin I): 2.5 fold
Proliferation of the neural precursor cells (Ki67), concentration dependence ([3]; 0.5, 1, 2 μM): increased rapidly
